Assay results reported in BindingDB's records for PubMed 35324195 (Sichuan University, 2022).

Test: Inhibition of IL-17 in human PBMC

Structure (SMILES): COc1cc(OC)c2c(=O)[nH]c(-c3cc(C)c(OCCN4CCCC4)c(C)c3)nc2c1
- IC50: 1300 nM
